Measured values from ChEMBL document CHEMBL1147781, “Design, synthesis and in vitro antimalarial activity of an acylhydrazone library” (Bioorg Med Chem Lett, 2006).

Each compound was assayed on Plasmodium falciparum (assay: Growth inhibition of chloroquine-resistant Plasmodium falciparum FcB1 at 1 uM).
Assay type: functional
For `COc1cccc(/C=N/NC(C)=O)c1O`, the inhibition at 1 µM was 33%. `Cc1ccc(O)c(/C=N/NC(=O)c2ccc([N+](=O)[O-])cc2)c1` showed an inhibition at 1 µM of 46%. `O=C(N/N=C/c1ccccc1O)c1cccs1` showed an inhibition at 1 µM of 13%. Work on `COc1cccc(/C=N/NC(=O)c2ccco2)c1O` yielded an inhibition at 1 µM of 41%. Work on `COc1ccc(O)c(/C=N/NC(=O)c2ccccc2)c1` yielded an inhibition at 1 µM of 38%. Compound `O=C(N/N=C/c1ccc(O)cc1O)c1ccc(Cl)cc1` has an inhibition at 1 µM of 16%. `COc1ccc(O)c(/C=N/NC(=O)Cc2ccccc2)c1` was tested, and the inhibition at 1 µM was 45%. `COc1ccc(C(=O)N/N=C/c2cc(OC)ccc2O)cc1` showed an inhibition at 1 µM of 18%. `COc1ccc(C(=O)N/N=C/c2cc([N+](=O)[O-])ccc2O)cc1` was tested, and the inhibition at 1 µM was 26%. In the case of `O=C(N/N=C/c1cc(Br)ccc1O)c1cccs1`, the inhibition at 1 µM was 38%. Compound `O=C(Cc1ccccc1)N/N=C/c1cc([N+](=O)[O-])ccc1O` has an inhibition at 1 µM of 0%. `O=C(N/N=C/c1ccc(O)cc1O)c1ccccc1` was tested, and the inhibition at 1 µM was 14%. In the case of `O=C(N/N=C/c1cccc(O)c1O)c1ccccc1`, the inhibition at 1 µM was 30%. With `O=C(N/N=C/c1cccc(O)c1O)c1cccnc1` the inhibition at 1 µM was 16%. With `COc1ccc(/C=N/NC(=O)c2cccnc2)c(O)c1` the inhibition at 1 µM was 38%. In the case of `COc1ccc(O)c(/C=N/NC(=O)c2cccnc2)c1`, the inhibition at 1 µM was 24%. Work on `COc1ccc(C(=O)N/N=C/c2cccc(O)c2O)cc1` yielded an inhibition at 1 µM of 21%. With `O=C(N/N=C/c1cc([N+](=O)[O-])ccc1O)c1ccc([N+](=O)[O-])cc1` the inhibition at 1 µM was 31%. With `COc1ccc(/C=N/NC(=O)c2ccc(O)cc2)c(O)c1` the inhibition at 1 µM was 14%. Compound `CC(C)(C)c1ccc(C(=O)N/N=C/c2ccc(O)cc2O)cc1` has an inhibition at 1 µM of 37%. With `O=C(N/N=C/c1ccc(O)cc1O)c1ccco1` the inhibition at 1 µM was 13%. In the case of `COc1cccc(/C=N/NC(=O)c2ccncc2)c1O`, the inhibition at 1 µM was 43%. `CC(C)(C)c1ccc(O)c(/C=N/NC(=O)c2ccncc2)c1` was tested, and the inhibition at 1 µM was 40%. `O=C(N/N=C/c1cc([N+](=O)[O-])ccc1O)c1ccc(O)cc1` was tested, and the inhibition at 1 µM was 4%. `COc1ccc(/C=N/NC(C)=O)c(O)c1` was tested, and the inhibition at 1 µM was 4%. Work on `O=C(N/N=C/c1cc(Br)ccc1O)c1ccc([N+](=O)[O-])cc1` yielded an inhibition at 1 µM of 17%. `CC(C)(C)c1ccc(O)c(/C=N/NC(=O)c2ccco2)c1` was tested, and the inhibition at 1 µM was 14%. Work on `O=C(N/N=C/c1cc(O)ccc1O)c1ccc(O)cc1` yielded an inhibition at 1 µM of 4%. In the case of `O=C(N/N=C/c1ccccc1O)c1ccc(O)cc1`, the inhibition at 1 µM was 11%. `CC(=O)N/N=C/c1cc(C)ccc1O` gave an inhibition at 1 µM of 32%. Work on `Cc1ccc(O)c(/C=N/NC(=O)c2ccncc2)c1` yielded an inhibition at 1 µM of 8%. `O=C(N/N=C/c1ccc(O)cc1O)c1ccc([N+](=O)[O-])cc1` gave an inhibition at 1 µM of 18%. `COc1ccc(C(=O)N/N=C/c2ccc(O)cc2O)cc1` gave an inhibition at 1 µM of 29%. `O=C(N/N=C/c1cc([N+](=O)[O-])ccc1O)c1cccs1` was tested, and the inhibition at 1 µM was 21%. With `COc1ccc(C(=O)N/N=C/c2ccc(OC)cc2O)cc1` the inhibition at 1 µM was 9%. With `CC(=O)N/N=C/c1ccccc1O` the inhibition at 1 µM was 0%. For `Cc1ccc(O)c(/C=N/NC(=O)c2ccc(O)cc2)c1`, the inhibition at 1 µM was 24%. Work on `O=C(N/N=C/c1ccccc1O)c1ccc([N+](=O)[O-])cc1` yielded an inhibition at 1 µM of 4%. `COc1ccc(/C=N/NC(=O)c2ccc([N+](=O)[O-])cc2)c(O)c1` showed an inhibition at 1 µM of 45%. Compound `O=C(N/N=C/c1cccc(O)c1O)c1cccs1` has an inhibition at 1 µM of 29%. For `O=C(N/N=C/c1cc(Br)ccc1O)c1ccncc1`, the inhibition at 1 µM was 29%. `CC(C)(C)c1ccc(O)c(/C=N/NC(=O)c2cccnc2)c1` gave an inhibition at 1 µM of 32%. Compound `COc1cccc(/C=N/NC(=O)c2ccc(C(C)(C)C)cc2)c1O` has an inhibition at 1 µM of 39%. `CCN(CC)c1ccc(/C=N/NC(=O)c2ccc(O)cc2)c(O)c1` was tested, and the inhibition at 1 µM was 12%. `O=C(N/N=C/c1ccccc1O)c1cccnc1` [N'-(2-HYDROXYBENZYLIDENE)NICOTINOHYDRAZIDE] gave an inhibition at 1 µM of 26%. Work on `O=C(N/N=C/c1cc([N+](=O)[O-])ccc1O)c1ccco1` yielded an inhibition at 1 µM of 16%. Work on `CC(C)(C)c1ccc(C(=O)N/N=C/c2cc(C(C)(C)C)ccc2O)cc1` yielded an inhibition at 1 µM of 48%. `O=C(N/N=C/c1ccc(O)cc1O)c1ccc(O)cc1` gave an inhibition at 1 µM of 15%. Work on `COc1ccc(O)c(/C=N/NC(=O)c2ccncc2)c1` yielded an inhibition at 1 µM of 34%. For `CC(C)(C)c1ccc(O)c(/C=N/NC(=O)c2ccc(O)cc2)c1`, the inhibition at 1 µM was 31%. `CC(=O)N/N=C/c1cc([N+](=O)[O-])ccc1O` was tested, and the inhibition at 1 µM was 22%. `O=C(N/N=C/c1cccc(O)c1O)c1ccc(O)cc1` showed an inhibition at 1 µM of 20%. Work on `COc1ccc(C(=O)N/N=C/c2cc(Br)ccc2O)cc1` yielded an inhibition at 1 µM of 29%. Work on `O=C(N/N=C/c1cc(O)ccc1O)c1ccccc1` yielded an inhibition at 1 µM of 0%. Work on `O=C(N/N=C/c1ccccc1O)c1ccncc1` [SALINAZID] yielded an inhibition at 1 µM of 22%. Work on `COc1ccc(C(=O)N/N=C/c2cc(C)ccc2O)cc1` yielded an inhibition at 1 µM of 28%. With `CCN(CC)c1ccc(/C=N/NC(=O)c2ccc(Cl)cc2)c(O)c1` the inhibition at 1 µM was 45%. `Cc1ccc(O)c(/C=N/NC(=O)c2ccco2)c1` was tested, and the inhibition at 1 µM was 37%. `COc1cccc(/C=N/NC(=O)c2ccc(Cl)cc2)c1O` gave an inhibition at 1 µM of 36%. `COc1cccc(/C=N/NC(=O)c2ccc(O)cc2)c1O` showed an inhibition at 1 µM of 16%. `COc1ccc(O)c(/C=N/NC(=O)c2ccc([N+](=O)[O-])cc2)c1` showed an inhibition at 1 µM of 14%. `CC(C)(C)c1ccc(C(=O)N/N=C/c2cccc(O)c2O)cc1` gave an inhibition at 1 µM of 41%. `Cc1ccc(O)c(/C=N/NC(=O)Cc2ccccc2)c1` showed an inhibition at 1 µM of 19%. With `O=C(N/N=C/c1cc(Br)ccc1O)c1ccc(O)cc1` the inhibition at 1 µM was 10%. Work on `CC(=O)N/N=C/c1cc(O)ccc1O` yielded an inhibition at 1 µM of 25%. Compound `O=C(N/N=C/c1cccc(O)c1O)c1ccc([N+](=O)[O-])cc1` has an inhibition at 1 µM of 24%. `O=C(N/N=C/c1cc(Br)ccc1O)c1cccnc1` gave an inhibition at 1 µM of 21%. `COc1cccc(/C=N/NC(=O)c2ccc([N+](=O)[O-])cc2)c1O` was tested, and the inhibition at 1 µM was 32%. In the case of `Cc1ccc(O)c(/C=N/NC(=O)c2ccccc2)c1`, the inhibition at 1 µM was 49%. With `O=C(N/N=C/c1ccccc1O)c1ccco1` the inhibition at 1 µM was 21%. Compound `COc1ccc(/C=N/NC(=O)c2ccc(Cl)cc2)c(O)c1` has an inhibition at 1 µM of 8%. With `COc1ccc(/C=N/NC(=O)c2cccs2)c(O)c1` the inhibition at 1 µM was 24%. `CC(C)(C)c1ccc(C(=O)N/N=C/c2ccccc2O)cc1` gave an inhibition at 1 µM of 43%. `CC(=O)N/N=C/c1cc(Br)ccc1O` showed an inhibition at 1 µM of 17%. `O=C(N/N=C/c1ccccc1O)c1ccc(Cl)cc1` gave an inhibition at 1 µM of 25%. `O=C(N/N=C/c1cc(O)ccc1O)c1ccco1` showed an inhibition at 1 µM of 21%. Compound `O=C(N/N=C/c1cccc(O)c1O)c1ccc(Cl)cc1` has an inhibition at 1 µM of 13%. In the case of `Cc1ccc(O)c(/C=N/NC(=O)c2cccnc2)c1`, the inhibition at 1 µM was 33%. Work on `O=C(N/N=C/c1cc([N+](=O)[O-])ccc1O)c1ccncc1` yielded an inhibition at 1 µM of 15%. `COc1ccc(O)c(/C=N/NC(=O)c2ccc(C(C)(C)C)cc2)c1` showed an inhibition at 1 µM of 47%. Work on `Cc1ccc(O)c(/C=N/NC(=O)c2cccs2)c1` yielded an inhibition at 1 µM of 23%. `CC(C)(C)c1ccc(C(=O)N/N=C/c2cc([N+](=O)[O-])ccc2O)cc1` was tested, and the inhibition at 1 µM was 36%. With `CCN(CC)c1ccc(/C=N/NC(=O)c2cccs2)c(O)c1` the inhibition at 1 µM was 37%. With `O=C(Cc1ccccc1)N/N=C/c1cccc(O)c1O` the inhibition at 1 µM was 19%. Work on `CCN(CC)c1ccc(/C=N/NC(C)=O)c(O)c1` yielded an inhibition at 1 µM of 34%. For `O=C(N/N=C/c1cc(O)ccc1O)c1ccc([N+](=O)[O-])cc1`, the inhibition at 1 µM was 28%. `COc1ccc(C(=O)N/N=C/c2cc(O)ccc2O)cc1` gave an inhibition at 1 µM of 39%. Compound `CCN(CC)c1ccc(/C=N/NC(=O)c2cccnc2)c(O)c1` has an inhibition at 1 µM of 2%. Compound `O=C(N/N=C/c1cccc(O)c1O)c1ccco1` has an inhibition at 1 µM of 20%. For `O=C(Cc1ccccc1)N/N=C/c1cc(O)ccc1O`, the inhibition at 1 µM was 4%. `O=C(N/N=C/c1cc(Br)ccc1O)c1ccccc1` showed an inhibition at 1 µM of 47%. Work on `O=C(Cc1ccccc1)N/N=C/c1cc(Br)ccc1O` yielded an inhibition at 1 µM of 33%. Work on `COc1ccc(/C=N/NC(=O)c2ccc(C(C)(C)C)cc2)c(O)c1` yielded an inhibition at 1 µM of 43%. Compound `O=C(N/N=C/c1ccc(O)cc1O)c1cccs1` has an inhibition at 1 µM of 13%. `O=C(N/N=C/c1cc([N+](=O)[O-])ccc1O)c1cccnc1` showed an inhibition at 1 µM of 19%. `CC(=O)N/N=C/c1cc(C(C)(C)C)ccc1O` gave an inhibition at 1 µM of 32%. Work on `COc1cccc(/C=N/NC(=O)c2cccnc2)c1O` yielded an inhibition at 1 µM of 32%. In the case of `COc1ccc(C(=O)N/N=C/c2ccccc2O)cc1`, the inhibition at 1 µM was 14%. For `COc1ccc(O)c(/C=N/NC(C)=O)c1`, the inhibition at 1 µM was 3%. In the case of `O=C(N/N=C/c1cc([N+](=O)[O-])ccc1O)c1ccccc1`, the inhibition at 1 µM was 21%. With `CCN(CC)c1ccc(/C=N/NC(=O)c2ccc(OC)cc2)c(O)c1` the inhibition at 1 µM was 39%. `COc1ccc(/C=N/NC(=O)c2ccccc2)c(O)c1` gave an inhibition at 1 µM of 32%. For `COc1ccc(C(=O)N/N=C/c2cccc(OC)c2O)cc1`, the inhibition at 1 µM was 37%. With `O=C(Cc1ccccc1)N/N=C/c1ccccc1O` the inhibition at 1 µM was 27%. In the case of `O=C(N/N=C/c1cc(Br)ccc1O)c1ccc(Cl)cc1`, the inhibition at 1 µM was 36%. In the case of `O=C(N/N=C/c1ccccc1O)c1ccccc1`, the inhibition at 1 µM was 35%. `COc1ccc(O)c(/C=N/NC(=O)c2ccco2)c1` showed an inhibition at 1 µM of 33%. `O=C(N/N=C/c1cc([N+](=O)[O-])ccc1O)c1ccc(Cl)cc1` showed an inhibition at 1 µM of 31%. Compound `COc1cccc(/C=N/NC(=O)c2ccccc2)c1O` has an inhibition at 1 µM of 10%. Work on `O=C(N/N=C/c1cc(O)ccc1O)c1cccs1` yielded an inhibition at 1 µM of 19%. With `O=C(N/N=C/c1cc(Br)ccc1O)c1ccco1` the inhibition at 1 µM was 35%. `CC(=O)N/N=C/c1cccc(O)c1O` gave an inhibition at 1 µM of 29%. With `COc1cccc(/C=N/NC(=O)Cc2ccccc2)c1O` the inhibition at 1 µM was 30%. With `COc1ccc(/C=N/NC(=O)c2ccco2)c(O)c1` the inhibition at 1 µM was 45%. Work on `COc1ccc(/C=N/NC(=O)c2ccncc2)c(O)c1` yielded an inhibition at 1 µM of 35%. `CC(C)(C)c1ccc(O)c(/C=N/NC(=O)Cc2ccccc2)c1` showed an inhibition at 1 µM of 14%. In the case of `COc1ccc(O)c(/C=N/NC(=O)c2ccc(Cl)cc2)c1`, the inhibition at 1 µM was 24%. `CCN(CC)c1ccc(/C=N/NC(=O)c2ccco2)c(O)c1` gave an inhibition at 1 µM of 23%. Compound `O=C(N/N=C/c1cc(O)ccc1O)c1ccc(Cl)cc1` has an inhibition at 1 µM of 25%. In the case of `COc1ccc(/C=N/NC(=O)Cc2ccccc2)c(O)c1`, the inhibition at 1 µM was 41%. Work on `COc1cccc(/C=N/NC(=O)c2cccs2)c1O` yielded an inhibition at 1 µM of 16%. In the case of `O=C(N/N=C/c1cc(O)ccc1O)c1ccncc1`, the inhibition at 1 µM was 26%.
